According to PubChem BioAssay AID330 (DTP/NCI, 2004):
“And” between values parts separate entries of the source, which are not always exact repeats. Identical values can stand only once. Toxic doses and inconclusive results are not listed. How the source made its calls: active means survival T/C of 150% or more; inactive means T/C below 125% in these data. Peptide text beside a SMILES is read from it.

Test system: P388 leukemia ip, CD2F1 mice, survival T/C
Experiment: NCI In Vivo Anticancer Drug Screen. Data for tumor model P388 Leukemia (intraperitoneal) in CD2F1 (CDF1) mice
Settings: endpoint: median survival time, higher = longer survival
In short: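 Mice carrying the transplanted tumor received test compound or vehicle. Survival was recorded in each group, and the value is the treated-group measurement divided by that of the vehicle-treated control group.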

[1] = dose: 50.0 mg/kg/injection, schedule: Q01DX005 (ip), vehicle: saline with Tween-80
[2] = dose: 100.0 mg/kg/injection, schedule: Q01DX005 (ip), vehicle: saline with Tween-80
[3] = dose: 200.0 mg/kg/injection, schedule: Q01DX005 (ip), vehicle: saline with Tween-80
[4] = dose: 50.0 mg/kg/injection, schedule: Q01DX009 (ip), vehicle: Klucel (hydroxypropylcellulose) (HPC)
[5] = dose: 100.0 mg/kg/injection, schedule: Q01DX009 (ip), vehicle: Klucel (hydroxypropylcellulose) (HPC)
[6] = dose: 200.0 mg/kg/injection, schedule: Q01DX009 (ip), vehicle: Klucel (hydroxypropylcellulose) (HPC)
[7] = dose: 50.0 mg/kg/injection, schedule: Q01DX009 (ip), vehicle: saline with Tween-80
[8] = dose: 100.0 mg/kg/injection, schedule: Q01DX009 (ip), vehicle: saline with Tween-80
[9] = dose: 200.0 mg/kg/injection, schedule: Q01DX009 (ip), vehicle: saline with Tween-80
[10] = dose: 100.0 mg/kg/injection, schedule: Q04DX002 (ip), vehicle: Klucel (hydroxypropylcellulose) (HPC)
[11] = dose: 200.0 mg/kg/injection, schedule: Q04DX002 (ip), vehicle: Klucel (hydroxypropylcellulose) (HPC)
[12] = dose: 400.0 mg/kg/injection, schedule: Q04DX002 (ip), vehicle: Klucel (hydroxypropylcellulose) (HPC)
[13] = dose: 50.0 mg/kg/injection, schedule: Q01DX005 (ip), vehicle: Klucel (hydroxypropylcellulose) (HPC)
[14] = dose: 100.0 mg/kg/injection, schedule: Q01DX005 (ip), vehicle: Klucel (hydroxypropylcellulose) (HPC)
[15] = dose: 200.0 mg/kg/injection, schedule: Q01DX005 (ip), vehicle: Klucel (hydroxypropylcellulose) (HPC)
[16] = dose: 60.0 mg/kg/injection, schedule: Q01DX005 (ip), vehicle: Klucel (hydroxypropylcellulose) (HPC)
[17] = dose: 120.0 mg/kg/injection, schedule: Q01DX005 (ip), vehicle: Klucel (hydroxypropylcellulose) (HPC)
[18] = dose: 240.0 mg/kg/injection, schedule: Q01DX005 (ip), vehicle: Klucel (hydroxypropylcellulose) (HPC)
[19] = dose: 60.0 mg/kg/injection, schedule: Q01DX005 (ip), vehicle: saline with Tween-80
[20] = dose: 120.0 mg/kg/injection, schedule: Q01DX005 (ip), vehicle: saline with Tween-80
[21] = dose: 240.0 mg/kg/injection, schedule: Q01DX005 (ip), vehicle: saline with Tween-80

Measured: T/C

O=C(O)CSC(c1ccccc1)(c1ccc(-c2ccccc2)cc1)c1cccc2ccccc12 (configuration not stated)
inactive: [1] 95 % of control | [2] 109 % of control | [3] 109 % of control

CN(C)C1=CC(N(C)C)=NC12C(=N)N(C)C(=O)N(C)C2=O (configuration not stated)
inactive: dose: 50.0 mg/kg/injection, schedule: Q01DX005 (ip), vehicle: water 104 % of control | dose: 100.0 mg/kg/injection, schedule: Q01DX005 (ip), vehicle: water 104 % of control | dose: 200.0 mg/kg/injection, schedule: Q01DX005 (ip), vehicle: water 108 % of control

COC(=O)C1Cc2c([nH]c3ccccc23)C2CCC(=O)N12 (configuration not stated)
inactive: [4] 108 % of control | [5] 100 % of control | [6] 104 % of control

CC(=O)C(c1ccccc1)[N+](C)(C)C (configuration not stated)
inactive: dose: 25.0 mg/kg/injection, schedule: Q04DX003 (ip), vehicle: other 100 % of control | dose: 50.0 mg/kg/injection, schedule: Q04DX003 (ip), vehicle: other 100 % of control | dose: 100.0 mg/kg/injection, schedule: Q04DX003 (ip), vehicle: other 98 % of control

COc1cc2c(c(OC)c1OC)-c1ccc(SC)c(=O)cc1[C@@H](NC1OC(CO)C(O)C(O)C1O)CC2 (some centres not stated)
inactive: dose: 3.12 mg/kg/injection, schedule: Q01DX009 (ip), vehicle: saline 107 % of control and 111 % of control | dose: 3.13 mg/kg/injection, schedule: Q01DX009 (ip), vehicle: saline 115 % of control | dose: 6.25 mg/kg/injection, schedule: Q01DX009 (ip), vehicle: saline 118 % of control [middle of 4 runs] | dose: 12.5 mg/kg/injection, schedule: Q01DX009 (ip), vehicle: saline 123 % of control | dose: 25.0 mg/kg/injection, schedule: Q01DX009 (ip), vehicle: saline 118 % of control and 122 % of control

O=C1C(Cl)=C(n2c3ccccc3c3ccccc32)C(=O)c2ccccc21
inactive: dose: 6.25 mg/kg/injection, schedule: Q01DX005 (ip), vehicle: saline with Tween-80 108 % of control | dose: 12.5 mg/kg/injection, schedule: Q01DX005 (ip), vehicle: saline with Tween-80 104 % of control

CC(C)(C)OC(=O)NC(CCC(=O)OCc1ccccc1)C(=O)ON1C(=O)CCC1=O (configuration not stated)
inactive: [1] 104 % of control | [2] 114 % of control | [3] 102 % of control

CN(C)C1CCc2ccccc2C1OC(=O)/C=C/c1ccccc1 (configuration not stated)
inactive: dose: 12.5 mg/kg/injection, schedule: Q01DX009 (ip), vehicle: saline with Tween-80 101 % of control | dose: 25.0 mg/kg/injection, schedule: Q01DX009 (ip), vehicle: saline with Tween-80 106 % of control | [7] 111 % of control | [8] 111 % of control

C[Si](C)(CCl)N[Si](C)(C)CCl
inactive: dose: 50.0 mg/kg/injection, schedule: Q01DX009 (ip), vehicle: suspension in saline 100 % of control | [8] 100 % of control | dose: 100.0 mg/kg/injection, schedule: Q01DX009 (ip), vehicle: suspension in saline 98 % of control | [9] 96 % of control | dose: 200.0 mg/kg/injection, schedule: Q01DX009 (ip), vehicle: suspension in saline 105 % of control | dose: 400.0 mg/kg/injection, schedule: Q01DX009 (ip), vehicle: saline with Tween-80 122 % of control

CC(C)(C)c1ccc(OP(=S)(NN)Oc2ccc(C(C)(C)C)cc2)cc1
inactive: [4] 98 % of control | [5] 102 % of control | [6] 94 % of control

CC(C)C(Br)C(N)=O (configuration not stated)
inactive: [10] 100 % of control | [11] 103 % of control | [12] 105 % of control

CSC1=NCc2c(sc3c2CCCC3)N1
inactive: [13] 100 % of control | [14] 106 % of control | [15] 98 % of control

O=C(O)C(=O)O.O=C(O)C(=O)O.O=C(O)C(=O)O.[Co]
inactive: dose: 6.25 mg/kg/injection, schedule: Q04DX002 (ip), vehicle: saline 91 % of control | dose: 12.5 mg/kg/injection, schedule: Q04DX002 (ip), vehicle: saline 100 % of control | dose: 25.0 mg/kg/injection, schedule: Q04DX002 (ip), vehicle: saline 91 % of control

CCc1nc(-c2ccccc2)nc2c1nc(-c1cccc(C)c1)n2Nc1ccccc1
inactive: [16] 97 % of control | [17] 94 % of control | [18] 88 % of control

COC(=O)c1[nH]c(=S)[nH]c(=O)c1C
inactive: [1] 89 % of control | [2] 97 % of control

Nc1ccccc1S(=O)(=O)Nc1c(N)[nH]c(=S)[nH]c1=O
inactive: [16] 105 % of control | [17] 99 % of control | [18] 113 % of control

NS(=O)(=O)c1ccc(NC(=O)Nc2cc(C(F)(F)F)ccc2Cl)cc1
inactive: [19] 103 % of control | [20] 96 % of control | [21] 87 % of control

O=C1C=C(O)CC(c2ccccc2)N1 (configuration not stated)
inactive: [13] 102 % of control | [14] 104 % of control | [15] 108 % of control

O=S(=O)(CS(=O)(=O)c1ccc(Br)cc1)c1ccc(Br)cc1
inactive: [16] 102 % of control | [17] 107 % of control | [18] 102 % of control

Clc1ccc(-c2cn3c(n2)SCC3)cc1
inactive: dose: 100.0 mg/kg/injection, schedule: Q01DX001 (ip), vehicle: Klucel (hydroxypropylcellulose) (HPC) 121 % of control | [10] 102 % of control | dose: 200.0 mg/kg/injection, schedule: Q01DX001 (ip), vehicle: Klucel (hydroxypropylcellulose) (HPC) 88 % of control | [11] 104 % of control | [12] 106 % of control

CC(NC(=O)C(Cc1ccccc1)NC(=O)C(N)CCCN=C(N)N)C(=O)O (stereo not drawn) (H-Arg-Phe-Ala-OH; configuration not given here)
inactive: dose: 50.0 mg/kg/injection, schedule: Q01DX005 (ip), vehicle: saline 102 % of control | dose: 100.0 mg/kg/injection, schedule: Q01DX005 (ip), vehicle: saline 101 % of control | dose: 200.0 mg/kg/injection, schedule: Q01DX005 (ip), vehicle: saline 101 % of control

N/N=C1/C(=O)N(c2ccc(S(N)(=O)=O)cc2)C(=O)C1C(=O)Nc1ccc(S(N)(=O)=O)cc1 (configuration not stated)
inactive: [19] 114 % of control | [20] 101 % of control | [21] 106 % of control

CCCN1CN2C(C)C(c3ccccc3)OC2C(C)(C)C1 (configuration not stated)
inactive: [7] 112 % of control | [8] 112 % of control | [9] 117 % of control

N#C/C(=C\c1ccccc1)CN1CCCCC1
inactive: dose: 100.0 mg/kg/injection, schedule: Q01DX001 (ip), vehicle: saline with Tween-80 110 % of control | dose: 200.0 mg/kg/injection, schedule: Q01DX001 (ip), vehicle: saline with Tween-80 122 % of control

Cc1cccc(N2C(c3ccccc3)c3ccc(C)cc3NS2=O)c1 (configuration not stated)
inactive: [19] 97 % of control | [20] 90 % of control | [21] 95 % of control

O=[N+]([O-])c1nc(Br)n[nH]1
inactive: dose: 100.0 mg/kg/injection, schedule: Q04DX002 (ip), vehicle: water 107 % of control | dose: 200.0 mg/kg/injection, schedule: Q04DX002 (ip), vehicle: water 106 % of control
